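Growth conditions: 96-well plates. Treatment: test compound, 48 hours, 5 concentrations. Analysis: linear interpolation between bracketing concentrations; unreached endpoints set to highest concentration. Definition used: TGI = concentration required for complete inhibition of growth.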

One experiment has as its system RPMI-8226 leukemia. Briefly: inhibition of tumour cell growth, NCI panel, 48 h.
`Nc1nc2ccc(NCc3ccc(C(=O)NC(CCC(=O)O)C(=O)O)cc3)cc2c(=O)[nH]1` (centres undefined) showed a TGI greater than 100 µM.
On to `COc1ccc([C@H]2CC(=O)C[C@H](c3ccc(OC)cc3OC)C23C(=O)c2ccccc2C3=O)c(OC)c1`, for which the TGI was greater than 100 µM.

Another experiment relates to SR leukemia. The experiment can be described thus: inhibition of tumour cell growth, NCI panel, 48 h.
Consider `Cc1ccc(Nc2nc3ccccc3c(=O)n2N)cc1`, for which the TGI was greater than 100 µM.
Still for that read-out and setting: the same measure for `Nc1nc2ccc(NCc3ccc(C(=O)NC(CCC(=O)O)C(=O)O)cc3)cc2c(=O)[nH]1` (centres undefined): greater than 100 µM; for `COc1ccc([C@H]2CC(=O)C[C@H](c3ccc(OC)cc3OC)C23C(=O)c2ccccc2C3=O)c(OC)c1`: greater than 100 µM.

Another experiment deals with SN12C renal. Briefly: inhibition of tumour cell growth, NCI panel, 48 h.
With `Cc1ccc(Nc2nc3ccccc3c(=O)n2N)cc1`, the TGI was greater than 100 µM.
`Nc1nc2ccc(NCc3ccc(C(=O)NC(CCC(=O)O)C(=O)O)cc3)cc2c(=O)[nH]1` (centres undefined) yielded a TGI greater than 100 µM.
The same measure, in the same setting: the same measure for `COc1ccc([C@H]2CC(=O)C[C@H](c3ccc(OC)cc3OC)C23C(=O)c2ccccc2C3=O)c(OC)c1`: greater than 100 µM.

For a further experiment, the system named is M14 melanoma. The experiment can be described thus: inhibition of tumour cell growth, NCI panel, 48 h.
In turn, `Cc1ccc(Nc2nc3ccccc3c(=O)n2N)cc1` returned a TGI greater than 100 µM.
On to `Nc1nc2ccc(NCc3ccc(C(=O)NC(CCC(=O)O)C(=O)O)cc3)cc2c(=O)[nH]1` (centres undefined), for which the TGI stood at 87.5 µM.
`COc1ccc([C@H]2CC(=O)C[C@H](c3ccc(OC)cc3OC)C23C(=O)c2ccccc2C3=O)c(OC)c1` registered a TGI greater than 100 µM.

For another experiment, the system named is MDA-N. The experiment can be described thus: inhibition of tumour cell growth, NCI panel, 48 h.
`Cc1ccc(Nc2nc3ccccc3c(=O)n2N)cc1` returned a TGI greater than 100 µM.
Still for that read-out and setting: the same measure for `Nc1nc2ccc(NCc3ccc(C(=O)NC(CCC(=O)O)C(=O)O)cc3)cc2c(=O)[nH]1` (centres undefined): greater than 100 µM; for `COc1ccc([C@H]2CC(=O)C[C@H](c3ccc(OC)cc3OC)C23C(=O)c2ccccc2C3=O)c(OC)c1`: greater than 100 µM.

For another experiment, the system named is SF-539 CNS. Briefly: inhibition of tumour cell growth, NCI panel, 48 h.
`Cc1ccc(Nc2nc3ccccc3c(=O)n2N)cc1` came in with a TGI greater than 100 µM.
On the same count and under the same terms, the same measure for `Nc1nc2ccc(NCc3ccc(C(=O)NC(CCC(=O)O)C(=O)O)cc3)cc2c(=O)[nH]1` (centres undefined): greater than 100 µM; for `COc1ccc([C@H]2CC(=O)C[C@H](c3ccc(OC)cc3OC)C23C(=O)c2ccccc2C3=O)c(OC)c1`: greater than 100 µM.

A further experiment has as its system KM12 colon. Briefly: inhibition of tumour cell growth, NCI panel, 48 h.
With `Cc1ccc(Nc2nc3ccccc3c(=O)n2N)cc1`, the TGI was greater than 100 µM.
Consider `Nc1nc2ccc(NCc3ccc(C(=O)NC(CCC(=O)O)C(=O)O)cc3)cc2c(=O)[nH]1` (centres undefined), for which the TGI is greater than 100 µM.
On the same count and under the same terms, the same measure for `COc1ccc([C@H]2CC(=O)C[C@H](c3ccc(OC)cc3OC)C23C(=O)c2ccccc2C3=O)c(OC)c1`: greater than 100 µM.

Another experiment concerns MDA-MB-435. The experiment can be described thus: inhibition of tumour cell growth, NCI panel, 48 h.
`Cc1ccc(Nc2nc3ccccc3c(=O)n2N)cc1` yielded a TGI greater than 100 µM.
In the case of `Nc1nc2ccc(NCc3ccc(C(=O)NC(CCC(=O)O)C(=O)O)cc3)cc2c(=O)[nH]1` (centres undefined), the TGI is greater than 100 µM.
Still for that read-out and setting: with `COc1ccc([C@H]2CC(=O)C[C@H](c3ccc(OC)cc3OC)C23C(=O)c2ccccc2C3=O)c(OC)c1` the figure was greater than 100 µM.

The next experiment deals with DU-145 prostate. Briefly: inhibition of tumour cell growth, NCI panel, 48 h.
With `Cc1ccc(Nc2nc3ccccc3c(=O)n2N)cc1`, the TGI is greater than 100 µM.
Same read-out and setting: with `Nc1nc2ccc(NCc3ccc(C(=O)NC(CCC(=O)O)C(=O)O)cc3)cc2c(=O)[nH]1` (centres undefined) the figure was greater than 100 µM; with `COc1ccc([C@H]2CC(=O)C[C@H](c3ccc(OC)cc3OC)C23C(=O)c2ccccc2C3=O)c(OC)c1`, greater than 100 µM.

The next experiment relates to HOP-92 NSCLC. Briefly: inhibition of tumour cell growth, NCI panel, 48 h.
Molecule `Cc1ccc(Nc2nc3ccccc3c(=O)n2N)cc1` had a TGI greater than 100 µM.
Still for that read-out and setting: the same measure for `Nc1nc2ccc(NCc3ccc(C(=O)NC(CCC(=O)O)C(=O)O)cc3)cc2c(=O)[nH]1` (centres undefined): greater than 100 µM.
Consider `COc1ccc([C@H]2CC(=O)C[C@H](c3ccc(OC)cc3OC)C23C(=O)c2ccccc2C3=O)c(OC)c1`, for which the TGI is greater than 100 µM.

A further experiment deals with K-562 leukemia. Briefly: inhibition of tumour cell growth, NCI panel, 48 h.
As to `Cc1ccc(Nc2nc3ccccc3c(=O)n2N)cc1`, the TGI was greater than 100 µM.
Still for that read-out and setting: the same measure for `Nc1nc2ccc(NCc3ccc(C(=O)NC(CCC(=O)O)C(=O)O)cc3)cc2c(=O)[nH]1` (centres undefined): greater than 100 µM; for `COc1ccc([C@H]2CC(=O)C[C@H](c3ccc(OC)cc3OC)C23C(=O)c2ccccc2C3=O)c(OC)c1`: greater than 100 µM.

The next experiment relates to T-47D breast. The experiment can be described thus: inhibition of tumour cell growth, NCI panel, 48 h.
In turn, `Cc1ccc(Nc2nc3ccccc3c(=O)n2N)cc1` yielded a TGI greater than 100 µM.
As to `Nc1nc2ccc(NCc3ccc(C(=O)NC(CCC(=O)O)C(=O)O)cc3)cc2c(=O)[nH]1` (centres undefined), the TGI was greater than 100 µM.
On the same count and under the same terms, with `COc1ccc([C@H]2CC(=O)C[C@H](c3ccc(OC)cc3OC)C23C(=O)c2ccccc2C3=O)c(OC)c1` the figure was greater than 100 µM.

In the next experiment the test system is SK-MEL-5 melanoma. Briefly: inhibition of tumour cell growth, NCI panel, 48 h.
In turn, `Cc1ccc(Nc2nc3ccccc3c(=O)n2N)cc1` returned a TGI greater than 100 µM.
With `Nc1nc2ccc(NCc3ccc(C(=O)NC(CCC(=O)O)C(=O)O)cc3)cc2c(=O)[nH]1` (centres undefined), the TGI is greater than 100 µM.
`COc1ccc([C@H]2CC(=O)C[C@H](c3ccc(OC)cc3OC)C23C(=O)c2ccccc2C3=O)c(OC)c1` came in with a TGI greater than 100 µM.

The test system of a further experiment is NCI-H522 lung. Briefly: inhibition of tumour cell growth, NCI panel, 48 h.
`Cc1ccc(Nc2nc3ccccc3c(=O)n2N)cc1` came in with a TGI greater than 100 µM.
On the same count and under the same terms, with `Nc1nc2ccc(NCc3ccc(C(=O)NC(CCC(=O)O)C(=O)O)cc3)cc2c(=O)[nH]1` (centres undefined) the figure was greater than 100 µM; with `COc1ccc([C@H]2CC(=O)C[C@H](c3ccc(OC)cc3OC)C23C(=O)c2ccccc2C3=O)c(OC)c1`, greater than 100 µM.

The test system of another experiment is TK-10 renal. The experiment can be described thus: inhibition of tumour cell growth, NCI panel, 48 h.
For the molecule `Cc1ccc(Nc2nc3ccccc3c(=O)n2N)cc1`, the TGI is greater than 100 µM.
With `Nc1nc2ccc(NCc3ccc(C(=O)NC(CCC(=O)O)C(=O)O)cc3)cc2c(=O)[nH]1` (centres undefined), the TGI is greater than 100 µM.
Molecule `COc1ccc([C@H]2CC(=O)C[C@H](c3ccc(OC)cc3OC)C23C(=O)c2ccccc2C3=O)c(OC)c1` came in with a TGI greater than 100 µM.

The values are drawn from PubChem BioAssay (NCI).
